Measured values: US8153360B2, “Flavivirus fusion inhibitors” (The Administrators of the Tulane Educational Fund, priority 2002, dated 2012)

Tests used:
[1] = test system: H77-E1E2 pseudotype expressing envelope glycoproteins E1 and E2 of the H77 strain of HCV; assay: HCV pseudotype infectivity, luciferase activity of cell lysates; type: cell-based, hepatitis C virus; conditions: peptide about 25 μM (asterisked peptides 10 μM or less); for H77-E1E2 number of luciferase units (lumens) produced after infection: 72 h at 37° C., vehicle 113,733; for Percent Inhibition (H77-E1E2 HCV pseudotype infectivity): relative to DMSO vehicle
[2] = test system: pseudotype expressing the envelope glycoprotein of murine leukemia virus (MLV); assay: MLV pseudotype infectivity, luciferase activity (peptide/cytotoxicity control); type: cell-based; conditions: peptide about 25 μM (asterisked peptides 10 μM or less); for MLV number of luciferase units (lumens) produced after infection: 72 h at 37° C., vehicle 439,158; for Percent inhibition (MLV pseudotype infectivity): relative to DMSO vehicle
HIV-1 [3] = conditions: cited from earlier work
HIV-1 [4] = conditions: preliminary results from phase III clinical trials; cited from earlier work

| Substance | H77-E1E2 number of luciferase units (lumens) produced after infection [1] | MLV number of luciferase units (lumens) produced after infection [2] | Percent inhibition (MLV pseudotype infectivity) [2] [%] | Percent Inhibition (H77-E1E2 HCV pseudotype infectivity) [1] [%] | Inhibition of HIV-1 infectivity (HIV-1 [3]) | Effect on HIV-1 load in AIDS patients (HIV-1 [4]) |
| --- | --- | --- | --- | --- | --- | --- |
| AALVVAQLLRIPQAIMDM [Peptide 73] | 100,666 luciferase units (lumens) | 433,001 luciferase units (lumens) | 1.40 | – | – | – |
| AHWGVLAGIKYFSMVGNW [Peptide 76] | 96,283 luciferase units (lumens) | 473,757 luciferase units (lumens) | −7.88 | – | – | – |
| ALYVGDLCGSVFLVGQLF [Peptide 65] | 87,726 luciferase units (lumens) | 491,789 luciferase units (lumens) | −11.98 | – | – | – |
| CGSVFLVGQLFTFSPRHH [Peptide 66] | 23,387 luciferase units (lumens) | 189,683 luciferase units (lumens) | 56.81 | – | – | – |
| DAILHTPGCVPCVREGNA [Peptide 57] | 169,860 luciferase units (lumens) | 331,852 luciferase units (lumens) | 24.44 | – | – | – |
| GCVPCVREGNASRCWVAV [Peptide 58] | 118,767 luciferase units (lumens) | 329,895 luciferase units (lumens) | 24.98 | – | – | – |
| GIKYFSMVGNWAKVLVVL [Peptide 77] | 56,425 luciferase units (lumens) | 321,076 luciferase units (lumens) | 26.89 | – | – | – |
| GQLFTFSPRHHWTTQDCN [Peptide 67] | 64,601 luciferase units (lumens) | 357,577 luciferase units (lumens) | 28.58 | – | – | – |
| GSATLCSALYVGDLCGSV [Peptide 64] | 113,108 luciferase units (lumens) | 316,948 luciferase units (lumens) | 27.83 | – | – | – |
| HRMANMMMNWSPTAALV [Peptide 71] | 83,489 luciferase units (lumens) | 533,765 luciferase units (lumens) | −21.54 | – | – | – |
| IMDMIAGAHWGVLAGIKY [Peptide 75] | 113,359 luciferase units (lumens) | 420,026 luciferase units (lumens) | 4.36 | – | – | – |
| LLRIPQAIMDMIAGAHWG [Peptide 74] | 32,888 luciferase units (lumens) | 467,876 luciferase units (lumens) | −6.54 | – | – | – |
| LPTTQLRRHIDLLVGSAT [Peptide 62] | 115,966 luciferase units (lumens) | 415,014 luciferase units (lumens) | 5.50 | – | – | – |
| LVVLLLFAGVDAETHVTG [Peptide 79] | 101,702 luciferase units (lumens) | 740,034 luciferase units (lumens) | −68.51 | – | – | – |
| MMNWSPTAALVVAQLLRI [Peptide 72] | 75,763 luciferase units (lumens) | 392,680 luciferase units (lumens) | 10.58 | – | – | – |
| PRHHWTTQDCNCSIYPGH [Peptide 68] | 79,297 luciferase units (lumens) | 498,991 luciferase units (lumens) | −13.62 | – | – | – |
| QDCNCSIYPGHITGHRMA [Peptide 69] | 196,922 luciferase units (lumens) | 354,027 luciferase units (lumens) | 19.39 | – | – | – |
| RHIDLLVGSATLCSALYV [Peptide 63] | 57,915 luciferase units (lumens) | 438,440 luciferase units (lumens) | 0.16 | – | – | – |
| SAYQVRNSSGLYHVTNDC [Peptide 53] | 113,469 luciferase units (lumens) | 443,528 luciferase units (lumens) | −9.95 | – | – | – |
| SCLTVPASAYQVRNSSGL [Peptide 52] | 133,259 luciferase units (lumens) | 533,179 luciferase units (lumens) | −21.4 | – | – | – |
| SIVYEAADAILHTPGCVP [Peptide 56] | 65,612 luciferase units (lumens) | 433,459 luciferase units (lumens) | 1.30 | – | – | – |
| SSGLYHVTNDCPNSSIVY [Peptide 54] | 74 luciferase units (lumens) | 280,113 luciferase units (lumens) | 36.22 | – | – | – |
| TNDCPNSSVVYEAADAIL [Peptide 55] | 112,470 luciferase units (lumens) | 447,957 luciferase units (lumens) | −2.00 | – | – | – |
| VATRDGKLPTTQLRRHID [Peptide 61] | 148,796 luciferase units (lumens) | 423,925 luciferase units (lumens) | 3.47 | – | – | – |
| VGNWAKVLVVLLLFAGVD [Peptide 78] | 137,700 luciferase units (lumens) | 402,953 luciferase units (lumens) | 8.24 | – | – | – |
| WVAVTPTVATRDGKLPTT [Peptide 59] | 91,794 luciferase units (lumens) | 446,063 luciferase units (lumens) | −1.57 | 19.29 | – | – |
| WVAVTPTVATRDGKLPTT [Peptide 60] | 98,766 luciferase units (lumens) | 340,384 luciferase units (lumens) | 22.49 | 13.16 | – | – |
| YPGHITGHRMANMMMNW [Peptide 70] | 15,717 luciferase units (lumens) | 553,120 luciferase units (lumens) | −25.95 | – | – | – |
| enfuvirtide | – | – | – | – | inhibit HIV-1 infectivity | substantially reduce HIV-1 load |
